Experimental data published in ChEMBL document CHEMBL1811837 (Bioorg Med Chem, 2011).
Activity calls are given as the source filed them. No cut-off for these calls is given here.

Experiments:
[1] = molecular target: Sigma non-opioid intracellular receptor 1 (Cavia porcellus, UniProt Q60492)
Description: Displacement of [3H](+)-pentazocine from guinea pig brain sigma-1 receptor after 90 mins by liquid scintillation counter

[2] = molecular target: T1, D(2) dopamine receptor (Homo sapiens, UniProt P14416); experiment: biochemical
[3] = molecular target: T2, D(3) dopamine receptor (Homo sapiens, UniProt P35462); experiment: biochemical
T2 sequence (P35462 whole entry): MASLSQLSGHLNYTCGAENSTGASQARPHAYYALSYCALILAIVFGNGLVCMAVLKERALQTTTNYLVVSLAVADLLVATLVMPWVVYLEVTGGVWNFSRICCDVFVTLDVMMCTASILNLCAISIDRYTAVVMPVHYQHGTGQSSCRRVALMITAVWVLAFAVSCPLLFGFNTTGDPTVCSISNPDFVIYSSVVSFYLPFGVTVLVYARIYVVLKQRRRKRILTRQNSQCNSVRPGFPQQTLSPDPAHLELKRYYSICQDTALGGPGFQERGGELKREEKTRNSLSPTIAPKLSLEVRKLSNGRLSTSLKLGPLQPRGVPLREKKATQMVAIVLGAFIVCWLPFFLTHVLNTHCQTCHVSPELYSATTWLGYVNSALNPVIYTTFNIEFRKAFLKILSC

[4] = molecular target: T3, D(4) dopamine receptor (Homo sapiens, UniProt P21917); experiment: biochemical
T3 sequence (P21917 whole entry): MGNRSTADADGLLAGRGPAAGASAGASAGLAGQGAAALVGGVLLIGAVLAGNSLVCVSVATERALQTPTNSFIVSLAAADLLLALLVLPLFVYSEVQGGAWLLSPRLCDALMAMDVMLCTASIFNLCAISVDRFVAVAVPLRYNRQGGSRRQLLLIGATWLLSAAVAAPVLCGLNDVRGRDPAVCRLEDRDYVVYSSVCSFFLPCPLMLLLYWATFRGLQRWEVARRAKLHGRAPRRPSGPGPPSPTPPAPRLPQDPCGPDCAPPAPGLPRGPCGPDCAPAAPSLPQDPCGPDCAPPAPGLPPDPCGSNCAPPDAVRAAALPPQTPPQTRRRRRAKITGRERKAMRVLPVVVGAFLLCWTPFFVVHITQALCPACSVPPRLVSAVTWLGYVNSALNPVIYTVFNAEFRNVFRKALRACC

[5] = molecular target: T1, D(2) dopamine receptor; experiment: Partial agonist activity at human recombinant D2L receptor expressed in HEK cells assessed as inhibition of forskolin-induced [3H]cAMP production at 10 times Ki after 20 mins by […]; assay type: functional, cell-based; conditions: HEK293
[6] = molecular target: T2, D(3) dopamine receptor; experiment: Partial agonist activity at human recombinant D3 receptor expressed in HEK cells assessed as inhibition of forskolin-induced [3H]cAMP production at 10 times Ki after 20 mins by […]; assay type: functional, cell-based; conditions: HEK293
[7] = molecular target: T1, D(2) dopamine receptor; experiment: Intrinsic efficacy at human recombinant D2L receptor expressed in HEK cells assessed as assessed as inhibition of forskolin-induced [3H]cAMP production after 20 mins by […]; assay type: functional, cell-based; set-up: scale not given: the % may be the effect or the level left; conditions: HEK293
[8] = molecular target: T1, D(2) dopamine receptor

Sequence of Sigma non-opioid intracellular receptor 1 (Q60492 whole entry): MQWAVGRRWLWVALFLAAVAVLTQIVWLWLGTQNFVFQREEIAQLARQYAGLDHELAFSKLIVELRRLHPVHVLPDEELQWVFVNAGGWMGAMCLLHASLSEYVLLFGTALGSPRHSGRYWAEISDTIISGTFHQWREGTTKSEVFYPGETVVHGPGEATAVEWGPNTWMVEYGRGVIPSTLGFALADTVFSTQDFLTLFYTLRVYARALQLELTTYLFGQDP
T1 sequence (P14416 whole entry): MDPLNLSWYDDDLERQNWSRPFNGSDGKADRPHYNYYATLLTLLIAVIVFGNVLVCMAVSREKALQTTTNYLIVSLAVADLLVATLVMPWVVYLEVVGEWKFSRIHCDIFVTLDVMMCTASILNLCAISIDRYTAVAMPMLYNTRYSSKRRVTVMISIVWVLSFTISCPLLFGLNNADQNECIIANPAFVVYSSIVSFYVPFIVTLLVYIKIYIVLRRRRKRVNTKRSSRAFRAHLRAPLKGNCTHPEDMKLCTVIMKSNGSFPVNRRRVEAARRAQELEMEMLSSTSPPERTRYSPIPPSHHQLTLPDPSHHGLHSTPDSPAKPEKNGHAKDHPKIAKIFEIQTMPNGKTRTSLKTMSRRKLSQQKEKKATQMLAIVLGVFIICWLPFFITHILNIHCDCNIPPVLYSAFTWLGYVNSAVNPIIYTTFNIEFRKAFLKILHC

SMILES	Ki [1] [nM]	Ki [2] [nM]	Ki [3] [nM]	Ki [4] [nM]	Activity [5]	Activity [6]	Activity [7] [%]	Ki [8] [nM]
COc1ccccc1N1CCN(CCCCCOc2ccc3c(c2)NC(=O)CC3)CC1	1350	–	–	–	–	–	–	–
CN1CN(c2ccccc2)C2(CCN(CCCCOc3ccc4c(c3)NC(=O)CC4)CC2)C1=O	–	611	427	865	–	–	–	–
O=C1CCc2ccc(OCCCCN3CCC(O)(c4ccc(Cl)cc4)CC3)cc2N1	417	2600	1540	1310	–	–	–	–
COc1ccccc1N1CCN(CCCOc2ccc3ccc(=O)[nH]c3c2)CC1	2600	2.6	5.7	52.7	–	–	–	–
O=C1CCc2ccc(OCCCCN3CCN(c4ccccc4OCCF)CC3)cc2N1	13600	0.26	13.5	185	Active	Active	16	–
COc1ccccc1N1CCN(CCCOc2ccc3c(c2)NC(=O)CC3)CC1	759	–	7.4	38.5	–	–	–	4.8
COc1ccc(N2CCN(CCCCOc3ccc4c(c3)NC(=O)CC4)CC2)cc1	170	102	930	359	–	–	–	–
COc1ccccc1N1CCN(CCCCOc2ccc3c(c2)NC(=O)CC3)CC1	1180	–	–	–	–	–	–	–
O=C1CCc2ccc(OCCCCN3CCC(n4c(=O)[nH]c5ccccc54)CC3)cc2N1	–	145	879	1030	–	–	–	–
O=c1ccc2ccc(OCCCCN3CCN(c4ccccc4OCCF)CC3)cc2[nH]1	20900	0.07	2.7	31.9	–	–	–	–
COc1ccccc1N1CCN(CCCCCOc2ccc3ccc(=O)[nH]c3c2)CC1	1610	7.4	3.8	201	–	–	–	–
COc1ccccc1N1CCN(CCCCOc2ccc3ccc(=O)[nH]c3c2)CC1	2630	0.14	5.4	30.1	–	–	–	–
COc1cc(C)ccc1N1CCN(CCCCOc2ccc3c(c2)NC(=O)CC3)CC1	377	4.6	251	27.2	–	–	–	–
COc1ccc(N2CCN(CCCCOc3ccc4c(c3)NC(=O)CC4)CC2)c(OC)c1	620	25.3	785	286	–	–	–	–
O=C1CCc2ccc(OCCCCN3CCC(n4c(=O)[nH]c5cc(Cl)ccc54)CC3)cc2N1	–	309	574	1350	–	–	–	–
